In US5270321A, “Use of dicentrine and its derivatives for the treatment of arrhythmia” (priority 1992, dated 1993):
Like-named read-outs stand apart in the source and are kept apart here.

Experiments:
rat thoracic aorta = experiment: Norepinephrine-induced contraction of thoracic aorta; assay type: cell-based
Source text: They inhibited the aggregation of washed rabbit platelets induced by ADP, collagen, arachidonic acid and platelet-activating factor (PAF). […] Furthermore, the action potential of rat ventricular cells was prolonged by these fractions. After rechromatograph on a silica gel column with n-hexane-ethylacetate (2:1), four potent compounds, dicentrine, N-methylnandigerine, N-methylovigenine and dicentrinone were obtained.
The dried, ground root material (500 g) was extracted with 95% ethanol, and the extract was concentrated in vacua and fractionated into ethanol- and ethylacetate-soluble fractions. The ethylacetate-soluble fraction was then applied to a column of silica gel and eight fractions were obtained.
Concentration: arachidonic acid (100 μM), collagen (10 μg/ml),
norepinephrine (NE, 3 μM), each fraction (100 μg/ml).

serum triglyceride = experiment: Serum triglyceride level in rats fed with cholesterol-triglyceride-rich diet; assay type: in vivo, rat
guinea-pig trachea = experiment: Contraction and relaxation of guinea-pig trachea; assay type: cell-based
α1 -adrenoceptor = target: T1, α1 -adrenoceptor (Rattus norvegicus, UniProt P23944); experiment: α1-adrenoceptor antagonism, concentration-response (Schild) analysis of norepinephrine- and phenylephrine-induced contraction of rat thoracic aortae; assay type: cell-based; conditions: for Kb: means ± S.E.M.
T1 construct: contraction of rat thoracic aortae; from tissue; host or cells: rat thoracic aorta
T1 sequence (P23944 1-561): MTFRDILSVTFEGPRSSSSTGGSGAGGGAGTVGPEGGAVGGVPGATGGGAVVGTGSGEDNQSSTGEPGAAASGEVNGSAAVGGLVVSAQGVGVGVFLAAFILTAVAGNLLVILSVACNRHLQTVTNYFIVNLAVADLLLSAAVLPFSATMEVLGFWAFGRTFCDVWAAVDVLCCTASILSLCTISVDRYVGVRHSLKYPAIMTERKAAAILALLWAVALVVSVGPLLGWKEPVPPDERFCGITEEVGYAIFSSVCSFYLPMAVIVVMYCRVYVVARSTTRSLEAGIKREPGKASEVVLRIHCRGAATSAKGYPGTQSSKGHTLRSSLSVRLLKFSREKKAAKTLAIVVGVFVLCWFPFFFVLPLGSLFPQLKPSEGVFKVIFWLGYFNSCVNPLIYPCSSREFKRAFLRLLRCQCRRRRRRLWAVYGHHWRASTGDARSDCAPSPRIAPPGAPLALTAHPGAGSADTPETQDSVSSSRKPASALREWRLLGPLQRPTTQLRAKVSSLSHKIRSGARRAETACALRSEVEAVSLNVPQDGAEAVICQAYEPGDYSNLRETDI

aorta = experiment: Aortic contraction induced by U-46619, angiotensin II, high potassium or carbachol; assay type: cell-based, rat
[1] = tested on: pentobarbital-anesthetized rats; experiment: Systemic hemodynamic parameters of anesthetized rats; assay type: in vivo, rat
[2] = tested on: conscious spontaneously hypertensive (SH) rats; experiment: Mean arterial pressure in conscious spontaneously hypertensive (SH) rats; assay type: in vivo, rat
[3] = tested on: transient outward and steady state outward current; experiment: Voltage clamp: transient outward and steady state outward current in rat ventricular cells; assay type: cell-based
Source text: (§1) In rat ventricular cells, the effects of dicentrine on action potential and membrane current were studied. […] However, calcium current was less affected.

normotensive (NT) rats = experiment: Mean arterial pressure in conscious normotensive (NT) rats; assay type: in vivo, rat
calcium current = experiment: Voltage clamp: calcium current in rat ventricular cells; assay type: cell-based
Source text: as §1

[4] = tested on: fast sodium inward current; experiment: Fast sodium inward current in rat ventricular cells; assay type: cell-based
Source text: as §1

rat ventricular cells = experiment: Action potential in rat ventricular cells; assay type: cell-based; conditions: for AP amplitude / APD50 (action potential duration measured at 50% repolarization from the peak amplitude) / Tp (time to peak measured from the start of depolarization to the peak of the action potential): 3 μM, Ca^++ -Tyrode, 3 to 5 min exposure, means ± S.E.M.
Source text: as §1
The effects of dicentrine and quinidine on action potential were compared and studied in rat ventricular cells. […] In addition to the prolongation of APD50, a depression of initial upstroke amplitude from 138.3±2.6 mV to 125.5±4.5 mV and prolongation of the time to peak amplitude from 5.0±0.5 msec to 10.0±1.9 msec were observed.

isolated thoracic aorta = experiment: Contractile force of isolated thoracic aorta of rats fed with high cholesterol and high fat diet; assay type: in vivo, rat
[5] = concentration-response curve analysis
[6] = pentobarbital-anesthetized rats

Which “vasorelaxant potency (in words)” value (rat thoracic aorta) does the source give for `COc1cc2c(cc1OC)-c1c3c(cc4c1[C@H](C2)N(C)CC4)OCO3` [Dicentrine, dicentrine] here?
Its value is “the most potent vasorelaxant in rat thoracic aorta”.

And the “serum triglyceride level (in words)” value (serum triglyceride)?
Its value is “decreased the serum triglyceride level”.

What about the “contraction of guinea-pig trachea caused by histamine or carbachol (in words)” value (guinea-pig trachea; histamine or carbachol) of the same molecule?
The value was “slightly inhibited”.

And the “B-adrenoceptor relaxation to isoprenaline in trachea (in words)” value (guinea-pig trachea; isoprenaline)?
The value was “not affected”.

And the r (α1 -adrenoceptor; agonist norepinephrine)?
Its r is 0.99.

And the Kb (α1 -adrenoceptor; agonist norepinephrine, read-out: pA2 (converted))?
The Kb was 6.46 nM.

What about the r (α1 -adrenoceptor; agonist phenylephrine) of the same molecule?
Its r is 0.99.

And the “potency compared with phentolamine or yohimbine (in words)” value (α1 -adrenoceptor; [5])?
Its value is “much more potent than phentolamine or yohimbine”.

And the “potency compared with prazosin (in words)” value (α1 -adrenoceptor; [5])?
Its value is “less potent than prazosin”.

And the “antagonism in denuded aorta (in words)” value (α1 -adrenoceptor; denuded aorta)?
The value was “These effects still persisted in denuded aorta”.

And the Kb (α1 -adrenoceptor; pA2, agonist phenylephrine)?
Its Kb is 0.977 nM.

What about the “antagonism of norepinephrine- or phenylephrine-induced vasoconstriction (in words)” value (α1 -adrenoceptor; rat aorta) of the same molecule?
The value was “competitive antagonism”.

What about the “aortic contraction induced by U-46619, angiotensin II, high potassium or carbachol (in words)” value (aorta) of the same molecule?
Its value is “did not affect”.

What about the “hypotensive activity after α1 -adrenoceptor blockade (in words)” value ([1]; after α1 -adrenoceptor blockade) of the same molecule?
Its value is “completely abolished”.

And the “mean arterial blood pressure (in words)” value ([1]; anesthetized rats, i.v. bolus 0.1-1.0 mg/kg)?
The value was “dose-related reduction in mean arterial blood pressure”.

And the “persistence of reduction in mean arterial blood pressure” value ([1]; anesthetized rats, i.v. bolus 0.1-1.0 mg/kg, throughout observation period)?
Its value is at least 2 h.

What about the “cardiac output (in words)” value [1, 6] of the same molecule?
The value was “little or no change in cardiac output (CO)”.

And the “mean arterial pressure (in words)” value [1, 6]?
Its value is “a decrease in mean arterial pressure (MAP)”.

And the “total peripheral resistance (in words)” value [1, 6]?
Its value is “a reduction in total peripheral resistance by increasing blood flow”.

What about the “heart rate, stroke volume (in words)” value ([1]; pentobarbital-anesthetized rats, in comparison with prazosin) of the same molecule?
Its value is “no change in heart rate (HR), or stroke volume (SV)”.

What about the “mean arterial pressure (in words)” value ([2]; compared with NT rats) of the same molecule?
The value was “dose-related decreases in mean arterial pressure which were of greater magnitude in SH than in NT rats”.

And the “persistence of hypotensive effect” value ([2]; oral administration)?
The value was “over 15 hr”.

What about the “transient outward and steady state outward current (in words)” value [3] of the same molecule?
The value was “significant inhibition of both transient outward and steady state outward current”.

And the “mean arterial pressure (in words)” value (normotensive (NT) rats)?
Its value is “dose-related decreases in mean arterial pressure”.

And the “calcium current (in words)” value (calcium current)?
Its value is “less affected”.

And the “fast sodium inward current (in words)” value [4]?
Its value is “inhibition of fast sodium inward current”.

And the AP amplitude (rat ventricular cells)?
The AP amplitude was 125.5 ± 4.5 mV.

And the “APD50 (action potential duration measured at 50% repolarization from the peak amplitude)” value (rat ventricular cells)?
Its value is 201.9 ± 28.7 ms.

And the “Tp (time to peak measured from the start of depolarization to the peak of the action potential)” value (rat ventricular cells)?
The value was 10.0 ± 1.9 ms.

And the AP amplitude (rat ventricular cells; listed as dicentrine)?
The AP amplitude was 125.5±4.5 mV.

What about the “APD50 (action potential duration measured at 50% repolarization from the peak amplitude)” value (rat ventricular cells; listed as dicentrine) of the same molecule?
The value was 201.9 ± 28.7 ms.

And the “Tp (time to peak measured from the start of depolarization to the peak of the action potential)” value (rat ventricular cells; listed as dicentrine)?
The value was 10.0 ± 1.9 ms.

What about the “action potential duration (in words)” value (rat ventricular cells; stimulation frequency 0.1 Hz) of the same molecule?
Its value is “prolonged the action potential”.

And the “initial upstroke amplitude (in words)” value (rat ventricular cells; stimulation frequency 0.1 Hz)?
The value was “reduced the initial upstroke amplitude”.

What about the “time to peak (in words)” value (rat ventricular cells; stimulation frequency 0.1 Hz) of the same molecule?
The value was “increased the time to peak”.

What about the “contractile force of cholesterol-triglyceride-treated rat aorta (in words)” value (isolated thoracic aorta; cholesterol-triglyceride-rich diet) of the same molecule?
The value was “restored the contractile force of cholesterol-triglyceride-treated rat aorta back to normal values”.

And the “maximal contractile force of isolated thoracic aorta (in words)” value (isolated thoracic aorta; high cholesterol and high fat diet three weeks, dicentrine 10 mg/kg oral twice a day in the last week, prazosin 5 mg/kg)?
Its value is “restored to normal range”.

With `Cc1ccc(N(CC2=NCCN2)c2cccc(O)c2)cc1` [Phentolamine, phentolamine, reference compound] as the molecule, how does the slope (α1 -adrenoceptor; Schild slope, agonist phenylephrine, 95% confidence limits in parentheses) read?
The slope was 0.72 (0.70-1.20).

And the r (α1 -adrenoceptor; agonist phenylephrine)?
Its r is 0.99.

Which r (α1 -adrenoceptor; agonist phenylephrine) does the source give for `COc1cc2nc(N3CCN(C(=O)c4ccco4)CC3)nc(N)c2cc1OC` [Prazosin, prazosin, reference compound] here?
The r was 0.99.

What about the “cardiac output (in words)” value [1, 6] of the same molecule?
The value was “little or no change in cardiac output (CO)”.

And the “mean arterial pressure (in words)” value [1, 6]?
Its value is “a decrease in mean arterial pressure (MAP)”.

What about the “total peripheral resistance (in words)” value [1, 6] of the same molecule?
The value was “a reduction in total peripheral resistance by increasing blood flow”.

For `C=C[C@H]1C[N@@]2CC[C@H]1C[C@@H]2[C@@H](O)c1ccnc2ccc(OC)cc12` [Quinidine, quinidine, reference compound], which AP amplitude (rat ventricular cells) is on record?
Its AP amplitude is 121.2 ± 2.3 mV.

And the “APD50 (action potential duration measured at 50% repolarization from the peak amplitude)” value (rat ventricular cells)?
The value was 276.0 ± 18.6 ms.

And the “Tp (time to peak measured from the start of depolarization to the peak of the action potential)” value (rat ventricular cells)?
The value was 10.8 ± 2.4 ms.

How did the r (α1 -adrenoceptor; agonist phenylephrine) turn out when `COC(=O)[C@@H]1[C@H]2C[C@H]3c4[nH]c5ccccc5c4CCN3C[C@@H]2CC[C@@H]1O` [Yohimbine, yohimbine, reference compound] was run?
Its r is 0.99.

And the Kb (α1 -adrenoceptor; pA2, agonist phenylephrine)?
The Kb was 631 nM.
